Test system: 217524-143-R1-J4-PDC spheroids with HUVEC/MSC, viability
Test: Anticancer human tumor 217524-143-R1-J4-PDC patient-derived pancreatic carcinoma cell line growth inhibition [CLK]
Conditions: for IC50: curve of first compound; for viability, T/C: stronger effect = lower value
From the text: A high-throughput screen of multi-cell type tumor spheroids was designed to identify active combinations of […] and targeted small molecules. Complex spheroids include a stromal component modeled by human endothelial cells (HUVEC) and fibroblasts modeled by human mesenchymal stem cells (MSCs). The concentration ranges selected for each drug and investigational agent were based upon clinically achievable concentrations if the clinical Cmax of the agent was known.
Compounds. The drugs and investigational agents: cirtuvivint (SM08502; NSC835563), CC-671 (NSC850746), vemurafenib (NSC761431), tapotoclax (NSC804041), sotorasib (NSC818433), adagrasib (NSC831453), MRTX-1133 (NSC836407), BAY2416964 (NSC825713), copanlisib (NSC816437), inavolisib (NSC800729), abemaciclib (NSC768073), osimertinib (NSC779217), entinostat (NSC756642), eltanexor (KPT-8602, NSC794443), venetoclax (NSC766270), ceralasertib (NSC777638), bortezomib (NSC756655), olaparib (NSC753686), talazoparib (NSC767125), alisertib (NSC759677), peposertib (NSC802822), gemcitabine (NSC613327), 5-fluorouracil (NSC19893), SN-38 (NSC673596), oxaliplatin (NSC266046), paclitaxel (NSC125973), and doxorubicin (NSC123127), were obtained from the National Cancer Institute (NCI) Developmental Therapeutics Program Chemical Repository. The FDA-approved anticancer drug set is available from the Developmental Therapeutics Program at https://dtp.cancer.gov/organization/dscb/obtaining/available plates.htm. […] The stock solutions were prepared in dimethyl sulfoxide (DMSO, Sigma-Aldrich, St. Louis, MO, cat. D2650), except for the platinum complexes which were prepared in saline (Quality Biological, Gaithersburg, MD, cat. 114-055-101), at 800-fold the tested concentration and stored at -70 degrees C prior to their use. All drugs and investigational agents were tested over a range starting from a high concentration at or near the clinical Cmax and decreasing in half-log increments. If the clinical Cmax for an agent had not been determined, the highest concentration tested was 10 microM.
Cell Culture. All cells were maintained in an incubator at 37 degrees C and 5% CO2 with 95% humidity. The PDC lines were cultured according to standard operating procedures established by the NCI PDMR. Briefly, all PDCs were thawed and cultured in Matrigel-coated flasks prepared with a working solution of 1X Ham's F-12 nutrient mix, without supplementation (Invitrogen, Waltham, MA, cat. 11765054), 100 U/mL penicillin-streptomycin (Invitrogen, cat. 15140122), and 2.5% Matrigel (Corning Inc., Corning, NY, cat. 354248) for the first three passages. The 947758-054-R-J2-PDC line was cultured in 6B/Colon 1A media, which includes advanced DMEM/F-12 (Thermo Fisher Scientific, cat. 12634028), 10 mM HEPES (Thermo Fisher Scientific, cat. 15630080), 1X GlutaMAX supplement (Thermo Fisher Scientific, cat. 35050061), 0.1 mg/mL primocin (InvivoGen, cat. ant-pm-2), 10% defined fetal bovine serum, heat inactivated (HyClone Laboratories Inc., cat. SH30070.03HI), 1.25 mM N-Acetyl-L-cysteine (Sigma-Aldrich, cat. A9165), 10 mM nicotinamide (Sigma-Aldrich, cat. N0636), 1X B-27 supplement (Thermo Fisher Scientific, cat. 17504044), 1X N-2 supplement (Thermo Fisher Scientific, cat. 17502048), and 10 microM Y-27632 dihydrochloride (Tocris Bioscience, cat. 1254). The 876862-298-R-J1-PDC was cultured in 6E media, which includes all 6B/Colon 1A media components plus 50% L-WRN conditioned media (ATCC, cat. CRL-3276), 50 ng/mL recombinant human EGF recombinant protein (hEGF; Thermo Fisher Scientific, cat. PHG0311), 10 ng/mL recombinant human fibroblast growth factor 10 (hGFG-10; PeproTech, cat. 100-26), 1 ng/mL recombinant human fibroblast growth factor 2 (hFGF-2; PeproTech, cat. 100-18B), and 1 µM prostaglandin E2 (PGE2; Tocris, cat. 2296). The 227483-062-R1-J1-PDC line was cultured in Panc media, containing all 6E components except hFGF-2, with the addition of 500 nM SB-431542 (Selleckchem, cat. S1067) and 10 nM gastrin (Tocris, cat. 3006). […]

[1] = second compound 0.0316 µM, first compound 0.0316 µM
[2] = second compound 0.0316 µM, first compound 0.1 µM
[3] = second compound 0.0316 µM, first compound 0.316 µM
[4] = second compound 0.0316 µM, first compound 1 µM
[5] = second compound 0.0316 µM, first compound 3.16 µM
[6] = second compound 0.0316 µM, first compound 10 µM
[7] = second compound 0.1 µM, first compound 0.0316 µM
[8] = second compound 0.1 µM, first compound 0.1 µM
[9] = second compound 0.1 µM, first compound 0.316 µM
[10] = second compound 0.1 µM, first compound 1 µM
[11] = second compound 0.1 µM, first compound 3.16 µM
[12] = second compound 0.1 µM, first compound 10 µM
[13] = second compound 0.316 µM, first compound 0.0316 µM
[14] = second compound 0.316 µM, first compound 0.1 µM
[15] = second compound 0.316 µM, first compound 0.316 µM
[16] = second compound 0.316 µM, first compound 1 µM
[17] = second compound 0.316 µM, first compound 3.16 µM
[18] = second compound 0.316 µM, first compound 10 µM
[19] = second compound 1 µM, first compound 0.0316 µM
[20] = second compound 1 µM, first compound 0.1 µM
[21] = second compound 1 µM, first compound 0.316 µM
[22] = second compound 1 µM, first compound 1 µM
[23] = second compound 1 µM, first compound 3.16 µM
[24] = second compound 1 µM, first compound 10 µM
[25] = second compound 3.16 µM, first compound 0.0316 µM
[26] = second compound 3.16 µM, first compound 0.1 µM
[27] = second compound 3.16 µM, first compound 0.316 µM
[28] = second compound 3.16 µM, first compound 1 µM
[29] = second compound 3.16 µM, first compound 3.16 µM
[30] = second compound 3.16 µM, first compound 10 µM
[31] = second compound 10 µM, first compound 0.0316 µM
[32] = second compound 10 µM, first compound 0.1 µM
[33] = second compound 10 µM, first compound 0.316 µM
[34] = second compound 10 µM, first compound 1 µM
[35] = second compound 10 µM, first compound 3.16 µM
[36] = second compound 10 µM, first compound 10 µM
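Also: spheroids exposed to agents for seven days before reading.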
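For viability, T/C in this document: 100% = DMSO vehicle control viability.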

## CCCS(=O)(=O)Nc1ccc(F)c(C(=O)c2c[nH]c3ncc(-c4ccc(Cl)cc4)cc23)c1F + CN1CCN(c2cc(C(=O)Nc3cc4cc(-c5cnn(C)c5)ccc4cn3)ccn2)CC1
Second compound 0.0316 µM
  IC50: > 10 µM
Second compound 0.1 µM
  IC50: > 10 µM
Second compound 0.316 µM
  IC50: < 0.0316 µM
Second compound 1 µM
  IC50: < 0.0316 µM
Second compound 3.16 µM
  IC50: < 0.0316 µM
Second compound 10 µM
  IC50: < 0.0316 µM
[1]
  viability, T/C: 86.3%
[2]
  viability, T/C: 69.2%
[3]
  viability, T/C: 107%
[4]
  viability, T/C: 124%
[5]
  viability, T/C: 135%
[6]
  viability, T/C: 61.4%
[7]
  viability, T/C: 61.4%
[8]
  viability, T/C: 67.7%
[9]
  viability, T/C: 62.4%
[10]
  viability, T/C: 78.8%
[11]
  viability, T/C: 100%
[12]
  viability, T/C: 44.4%
[13]
  viability, T/C: 26.1%
[14]
  viability, T/C: 26.4%
[15]
  viability, T/C: 33.3%
[16]
  viability, T/C: 32.9%
[17]
  viability, T/C: 34.9%
[18]
  viability, T/C: 19.9%
[19]
  viability, T/C: 2.26%
[20]
  viability, T/C: 2.37%
[21]
  viability, T/C: 2.29%
[22]
  viability, T/C: 3.2%
[23]
  viability, T/C: 2.09%
[24]
  viability, T/C: 2.01%
[25]
  viability, T/C: 0.92%
[26]
  viability, T/C: 0.96%
[27]
  viability, T/C: 1.2%
[28]
  viability, T/C: 1.02%
[29]
  viability, T/C: 1.17%
[30]
  viability, T/C: 0.97%
[31]
  viability, T/C: 0.29%
[32]
  viability, T/C: 0.32%
[33]
  viability, T/C: 0.65%
[34]
  viability, T/C: 0.3%
[35]
  viability, T/C: 1.04%
[36]
  viability, T/C: 1.34%

## COC1C=CCC(C)C(C)S(=O)(=O)NC(=O)c2ccc3c(c2)N(CC2CCC21)CC1(CCCc2cc(Cl)ccc21)CO3 (centres undefined) + CN1CCN(c2cc(C(=O)Nc3cc4cc(-c5cnn(C)c5)ccc4cn3)ccn2)CC1
Second compound 0.0316 µM
  IC50: 6.4 µM
Second compound 0.1 µM
  IC50: 4.17 µM
Second compound 0.316 µM
  IC50: < 0.0316 µM
Second compound 1 µM
  IC50: < 0.0316 µM
Second compound 3.16 µM
  IC50: < 0.0316 µM
Second compound 10 µM
  IC50: < 0.0316 µM
[1]
  viability, T/C: 90.2%
[2]
  viability, T/C: 93.2%
[3]
  viability, T/C: 75%
[4]
  viability, T/C: 91.2%
[5]
  viability, T/C: 107%
[6]
  viability, T/C: 23.8%
[7]
  viability, T/C: 65.7%
[8]
  viability, T/C: 67.5%
[9]
  viability, T/C: 56%
[10]
  viability, T/C: 61.4%
[11]
  viability, T/C: 58.5%
[12]
  viability, T/C: 24.5%
[13]
  viability, T/C: 23.9%
[14]
  viability, T/C: 23.3%
[15]
  viability, T/C: 23.3%
[16]
  viability, T/C: 22.9%
[17]
  viability, T/C: 27%
[18]
  viability, T/C: 16.6%
[19]
  viability, T/C: 2.49%
[20]
  viability, T/C: 1.84%
[21]
  viability, T/C: 1.71%
[22]
  viability, T/C: 1.6%
[23]
  viability, T/C: 1.08%
[24]
  viability, T/C: 1.77%
[25]
  viability, T/C: 0.91%
[26]
  viability, T/C: 1.31%
[27]
  viability, T/C: 0.81%
[28]
  viability, T/C: 1%
[29]
  viability, T/C: 1.26%
[30]
  viability, T/C: 0.8%
[31]
  viability, T/C: 1.26%
[32]
  viability, T/C: 0.35%
[33]
  viability, T/C: 0.37%
[34]
  viability, T/C: 0.37%
[35]
  viability, T/C: 0.36%
[36]
  viability, T/C: 1.06%
